# Experimental data as given in patent US20210251228A1, “METHODS FOR REPELLING DROSOPHILA SPECIES USING 2-PENTYLFURAN” (The United States of America, as represented by the …, priority 2020, published 2021).
# Columns and labels:
# [1] = test system: Drosophila suzukii antennae; test: Coupled GC-EAD of bread dough headspace volatiles on SWD antennae; conditions: adult female SWD antennae; adsorbent extract of bread dough; authentic standards 10 ng/μl
# Description: Adsorbent Sampling from Bread Dough: The bread dough bait consisted of whole-wheat flour (17.25 g), sugar (2 g), dry active bread yeast (0.325 g), apple cider vinegar (1 ml), and water (25 ml) (Cha, D. H., et al., J. Econ. Entomol., 111: 645-652 (2018a)). Headspace volatiles were collected from 10 g bread dough ball placed in a screened specimen cup (130 ml) by using 2.41 closed volatile collection chambers (ARS, Inc., Gainesville, Fla.) with one air inlet adapter (7 mm ID) on the top and an outlet adapter (7 mm ID) on the bottom wall. Clean air from a filtering and delivery system (ARS Inc., Gainesville, Fla.) was pushed into the chamber at 0.7 L/min through the top inlet port, and volatiles from the dough were pushed out through volatile traps (activated charcoal adsorbent filters, ORBO™32-small, Supelco Inc., Bellefonte, Pa.) on the bottom of the chamber. An additional ORBO™ filter was used to ensure that no breakthrough occurred. For each sample of dough (2 dough samples total), adsorbent collections were made over a 2-day period at room temperature using the same volatile trap. Volatiles were eluted with 600 μl methylene chloride every 24 h from the filters of a given dough sample and combined across the total of the collecting days (from 2 dough samples). The combined extract was kept at −20° C. and subjected to as chromatography-electroantennographic detection (GC-EAD) and gas chromatography-mass spectrometry (GC-MS) analyses.
# Coupled Gas Chromatographic-Electroantennographic Detection (GC-EAD): Coupled GC-EAD analysis was performed as described previously (Cha, D. H., J. Chem. Ecol., 34: 1180-1189 (2008); Cha, D. H., et al., J. Chem. Ecol., 38: 1419-1431 (2012)) using a Hewlett Packard 5890 Series II gas chromatograph equipped with either a non-polar DB-5 ms capillary column (30 m×0.25 mm ID, 0.25 μm film thickness; Agilent Technologies, Wilmington, Del.) or polar DB-WAXetr capillary column (30 m×0.25 mm ID, 0.25 μm film thickness; Agilent Technologies, Wilmington, Del.) in the splitless mode with 1 min sampling time. The oven temperature was programmed at 40° C. for 5 min, then increased by 15° C./min to 250° C., and held for 5 min. Injector and detector temperatures were set at 250° C. Nitrogen gas was the carrier at a flow of 2 ml/min. The column effluent was split 1:1 in the oven via a “Y” glass splitter (Supelco). One arm of the splitter led to the flame ionization detector (FID) (250° C.) and the other to the heated EAD port (250° C.). Whole head preparations were made of individual flies, age 5-9 day, for GC-EAD analysis (Cha et al. 2012). The head was separated from the body and its antennae positioned between two gold wire electrodes immersed in saline filled (Drosophila ringer solution; 46 mmol NaCl, 182 mmol KCl, 3 mmol CaCl2, and 10 mmol Tris HCl at pH 7.2) micropipettes in an acrylic holder. The antennal holder was placed inside a humidified condenser and maintained at 5° C. The output signal from the antenna was amplified by a customized high input impedance DC amplifier and recorded on an HP 3390A integrator.
# Chemical Analysis: GC-MS was carried out with an Agilent 5975MS coupled with a Agilent 6890GC equipped with either a DB-5 ms capillary column (30 m×0.25 mm ID, 0.25 μm film thickness; Agilent Technologies, Wilmington, Del.) or DB-WAXetr capillary column (30 m×0.25 mm ID, 0.25 μm film thickness; Agilent Technologies, Wilmington, Del.). Helium was the carrier gas (1.0 ml/min constant flow). The GC temperature program was the same as used for the GC-EAD analyses. The MS transfer-line was held at 260° C., the MS source at 230° C., and the MS quad at 150° C. Mass spectra were taken in EI mode (at 70 eV) in the range from 40 m/z to 350 m/z with a scanning rate of 4.58 scan/s. GC-MS data were processed with the MDS-Chemstation software (Agilent Technologies). […]
# Drosophila suzukii = test: Field test 1: unknown release rate of 2-pentylfuran, SWD oviposition on field raspberries; type: in vivo; conditions: 0.5 ml 50% 2-pentylfuran in mineral oil in vial, 3 days, N=16
# Description: Field Test 1: Effect of Unknown Release Rate of 2-Pentylfuran on SWD Oviposition. The objective of this field test was to confirm the repellent activity of 2-pentylfuran under field conditions. This experiment was conducted using a mixed variety planting of fall-bearing raspberries (primocane raspberries) at Cornell AgriTech in Geneva, N.Y. where we randomly assigned 32 fruiting clusters to one of two treatments: 1.5 ml centrifuge vial with 3 mm hole in lid and containing 0.5 ml 50% 2-pentylfuran in 1:1 ratio with mineral oil or vial with mineral oil only (similar to Wallingford et al. 2016a). After three days we collected ripe raspberries from each cluster and monitored SWD emergence over the 2 weeks in the laboratory (25 C, 55% RH, 16:8 L:D).
# (§1) Statistical Analyses: Trap catch data from multiple-choice assay and two-choice assay were analyzed in a randomized block design with block as a random factor and different EAD-active compounds as a fixed factor using Poisson distribution with log link function and maximum likelihood estimation (Proc Glimmix, SAS Institute, SAS/STAT 9.2 User's Guide, Second Edition, 2009, SAS Institute Inc., Cary, N.C.). […]
# Drosophila melanogaster = test: Two-choice bioassay: attraction to apple cider vinegar traps; type: in vivo; conditions: 20 h
# Description: Two-Choice Bioassay with Drosophila melanogaster: The two-choice assay (N=5) was conducted with an arena design using a dome cage (30 cm W×30 cm L×30 cm H; shop.bugdorm.com) as described in Cha et al. (2012) to evaluate the effect of 2-pentylfuran on D. melanogaster, vinegar fly, attraction to apple cider vinegar, a known attractant. The same gate cup trap design was used as described above in Multiple-Choice Bioassay section. Both traps had 20 ml of apple cider vinegar with soap. […] A cotton ball (3 cm diameter) soaked with distilled water was placed in the center of the arena to provide water to D. melanogaster. . Adult flies (˜50, roughly 1:1 male: female ratio, 7-10 days old) were released in each arena. The number of flies inside treatment and control traps was counted after 20 h.
# as §1
structure (smiles),measurement,setting,value
CCCCCc1ccco1 [2-pentylfuran],GC-EAD activity (antennal response),[1],active
same,reduction of number of eggs per raspberry fruit,Drosophila suzukii,30%
same,effect on D. melanogaster attraction to apple cider vinegar,"Drosophila melanogaster; 2-pentylfuran 10 mg/h sachet in gated trap, N=5",significantly reduced
same,number of D. melanogaster captured in traps baited with apple cider vinegar and 2-pentylfuran,"Drosophila melanogaster; among five replications, 10 mg/h, 50~67 in ACV-only traps",one
